Test system: hepatocytes
Test: Seq-Well scRNA-Seq of hepatocytes after APAP overdose (signature scores, DEG vs untreated)
Assay type: in vivo, mouse
Details: A6

CC(=O)Nc1ccc(O)cc1 [APAP, acetaminophen]
2-Mar pct.1: 0.611 | 2010003K11Rik pct.1: 0.396 | 2810007J24Rik pct.1: 0.675 | 8430408G22Rik pct.1: 0.041 | Aadac pct.1: 0.673 | Aass pct.1: 0.747 | Abca1 pct.1: 0.604 | Abhd2 pct.1: 0.37 | Acaa1b pct.1: 0.752 | Adck3 pct.1: 0.363 | Adh1 pct.1: 0.74 | Adh4 pct.1: 0.165 | Agpat9 pct.1: 0.277 | Akr1c6 pct.1: 0.675 | Akr1c20 pct.1: 0.248 | Alb pct.1: 1 | Aldh1a1 pct.1: 0.862 | Aldh3a2 pct.1: 0.064 | Aldh8a1 pct.1: 0.418 | Ang pct.1: 0.315 | Apoa2 pct.1: 0.993 | Apoa4 pct.1: 0.721 | Apob pct.1: 0.99 | Apoc1 pct.1: 0.962 | Apoc3 pct.1: 0.869 | Apoe pct.1: 1 | Apol7a pct.1: 0.072 | Arhgef12 pct.1: 0.578 | Arl4d pct.1: 0.112 | Asl pct.1: 0.826 | Atp2a2 pct.1: 0.616 | Atp5e pct.1: 0.506 | Atp5h pct.1: 0.377 | B4galt5 pct.1: 0.332 | Bach1 pct.1: 0.461 | Bcl2l1 pct.1: 0.501 | Btg2 pct.1: 0.549 | C8g pct.1: 0.673 | C230081A13Rik pct.1: 0.279 | Car3 pct.1: 0.854 | Ccl6 pct.1: 0.274 | Cd5l pct.1: 0.21 | Cd14 pct.1: 0.153 | Cd302 pct.1: 0.649 | Cdkn1a pct.1: 0.702 | Cers6 pct.1: 0.332 | Ces3a pct.1: 0.831 | Chchd2 pct.1: 0.718 | Chka pct.1: 0.716 | Cidec pct.1: 0.253 | Clec4f pct.1: 0.339 | Clqb pct.1: 0.234 | Cltc pct.1: 0.661 | Cml1 pct.1: 0.475 | Cox4i1 pct.1: 0.869 | Cox6c pct.1: 0.558 | Cox7a2 pct.1: 0.456 | Cox7b pct.1: 0.632 | Creb3l2 pct.1: 0.329 | Ctsl pct.1: 0.878 | Ctss pct.1: 0.212 | Cxadr pct.1: 0.606 | Cyb5 pct.1: 0.916 | Cyp4a14 pct.1: 0.776 | D10Wsu102e pct.1: 0.37 | Dbi pct.1: 0.819 | Ddt pct.1: 0.539 | Ddx3x pct.1: 0.692 | Ddx5 pct.1: 0.685 | Dusp5 pct.1: 0.196 | Dusp6 pct.1: 0.482 | Efhd2 pct.1: 0.468 | Eif1a pct.1: 0.599 | Eif4g2 pct.1: 0.757 | Epas1 pct.1: 0.604 | Etf1 pct.1: 0.606 | Ets2 pct.1: 0.415 | Fabp1 pct.1: 0.971 | Fabp2 pct.1: 0.315 | Fam134b pct.1: 0.678 | Fdx1 pct.1: 0.305 | Fga pct.1: 0.986 | Fgb pct.1: 0.995 | Fgg pct.1: 0.986 | Fkbp5 pct.1: 0.415 | Fxyd5 pct.1: 0.138 | G6pc pct.1: 0.313 | Gamt pct.1: 0.277 | Gclc pct.1: 0.962 | Gcnt2 pct.1: 0.372 | Gjb2 pct.1: 0.678 | Glyat pct.1: 0.468 | Gm13775 pct.1: 0.284 | Gm15564 pct.1: 0.983 | Gm24601 pct.1: 0.241 | Gm26924 pct.1: 1 | Gn13 pct.1: 0.501 | Gpt2 pct.1: 0.764 | Gpx1 pct.1: 0.969 | Grn pct.1: 0.582 | Gsta1 pct.1: 0.32 | Gulo pct.1: 0.076 | H3f3b pct.1: 0.613 | Haao pct.1: 0.621 | Hacl1 pct.1: 0.489 | Hagh pct.1: 0.573 | Hba-a1 pct.1: 0.165 | Hba-a2 pct.1: 0.131 | Hbb-bs pct.1: 0.537 | Hbb-bt pct.1: 0.246 | Hebp1 pct.1: 0.43 | Hes6 pct.1: 0.076 | Hgd pct.1: 0.511 | Hif1a pct.1: 0.427 | Hilpda pct.1: 0.403 | Hint1 pct.1: 0.57 | Hmox1 pct.1: 0.558 | Hnf4a pct.1: 0.835 | Hpd pct.1: 0.883 | Hsd3b5 pct.1: 0.062 | Hsd17b13 pct.1: 0.864 | Hspb8 pct.1: 0.709 | Iigp1 pct.1: 0.78 | Il1b pct.1: 0.236 | Il1r1 pct.1: 0.683 | Insig2 pct.1: 0.854 | Itih2 pct.1: 0.893 | Jak1 pct.1: 0.554 | Jmjd1c pct.1: 0.47 | Klf6 pct.1: 0.382 | Krt8 pct.1: 0.826 | Krt18 pct.1: 0.864 | Lactb2 pct.1: 0.47 | Lars2 pct.1: 1 | Lifr pct.1: 0.389 | Lpgat1 pct.1: 0.618 | Lpin2 pct.1: 0.745 | Lrg1 pct.1: 0.783 | Lrrc58 pct.1: 0.711 | Lyz2 pct.1: 0.234 | Man2a1 pct.1: 0.671 | Mat1a pct.1: 0.986 | Mbl1 pct.1: 0.382 | Mcm10 pct.1: 0.079 | Mfsd2a pct.1: 0.465 | Mgst1 pct.1: 0.938 | Mmp8 pct.1: 0.136 | Mrap pct.1: 0.606 | Msrb1 pct.1: 0.558 | Mt1 pct.1: 0.981 | Mt2 pct.1: 0.938 | Mthfd2 pct.1: 0.205 | Mup3 pct.1: 1 | Mup4 pct.1: 0.621 | Mup5 pct.1: 0.475 | Mup6 pct.1: 0.706 | Mup7 pct.1: 0.831 | Mup9 pct.1: 0.489 | Mup11 pct.1: 0.511 | Mup12 pct.1: 0.32 | Mup15 pct.1: 0.076 | Mup16 pct.1: 0.334 | Mup17 pct.1: 0.871 | Mup18 pct.1: 0.728 | Mup19 pct.1: 0.759 | Mup21 pct.1: 0.58 | Myh9 pct.1: 0.718 | Myo1e pct.1: 0.475 | Ndufa4 pct.1: 0.656 | Ndufa6 pct.1: 0.506 | Nid1 pct.1: 0.229 | Nop58 pct.1: 0.492 | Nudt7 pct.1: 0.279 | Oaf pct.1: 0.437 | Oat pct.1: 0.05 | Pah pct.1: 0.687 | Pcbd1 pct.1: 0.535 | Pck1 pct.1: 0.814 | Phlda1 pct.1: 0.494 | Picalm pct.1: 0.647 | Plin2 pct.1: 0.943 | Plscr1 pct.1: 0.329 | Pon1 pct.1: 0.685 | Ppib pct.1: 0.463 | Ppl pct.1: 0.47 | Ppm1k pct.1: 0.15 | Prdx1 pct.1: 0.742 | Psat1 pct.1: 0.229 | Psen2 pct.1: 0.384 | Ptprc pct.1: 0.153 | Ranbp2 pct.1: 0.566 | Rarres2 pct.1: 0.678 | Rcan1 pct.1: 0.425 | Rdh7 pct.1: 0.862 | Rell1 pct.1: 0.375 | Retnlg pct.1: 0.129 | Retsat pct.1: 0.845 | Rnase4 pct.1: 0.563 | Rock2 pct.1: 0.425 | Rora pct.1: 0.549 | Rps27l pct.1: 0.484 | S100a8 pct.1: 0.353

Source: patent publication US20230053540A1, “TREATMENT OF LIVER INJURY” (Massachusetts Institute of Technology, priority 2019, published 2023)
